Data on 17 compounds can be found in ChEMBL document CHEMBL1781941, “Synthesis and antitumor activity of 5-[1-(3-(dimethylamino)propyl)-5-halogenated-2-oxoindolin-(3Z)-ylidenemethyl]-2,4-dimethyl-1H-pyrrole-3-carboxamides” (Bioorg Med Chem Lett, 2011).

For experiment [1], the system named is MDA-MB-231. Briefly: Antitumor activity against human MDA-MB-231 cells. The format is functional, cell-based.
Experiment [2] deals with HUVEC. The experiment is described as follows: Inhibition of VEGF-induced cell proliferation in HUVEC by MTT assay. Conditions: Homo sapiens. The format is functional, cell-based. For orientation: Tetrazolium dyes change colour on reduction, which living cells bring about.
Experiment [3] relates to IM-9. Briefly: Antitumor activity against human IM9 cells. In kind it is functional, cell-based.
A further experiment deals with HL-60. Briefly: Antitumor activity against human HL60 cells. In kind it is functional, cell-based.
For experiment [4], the system named is K562. The experiment is described as follows: Antitumor activity against human K562 cells. The format is functional, cell-based.
Experiment [5] deals with HUVEC. Briefly: Inhibition of bFGF-induced cell proliferation in HUVEC by MTT assay. In kind it is functional, cell-based. The note with it: Homo sapiens.
For experiment [6], the system named is A549. Briefly: Antitumor activity against human A549 cells. The format is functional, cell-based.
The subject of experiment [7] is MDA-MB-231. Briefly: Ratio of Sunitinib IC50 to compound IC50 for human MDA-MB-231 cells. In kind it is functional.
In experiment [8] the test system is K562. Briefly: Ratio of Sunitinib IC50 to compound IC50 for human K562 cells. In kind it is functional.
Experiment [9] deals with IM-9. Briefly: Ratio of Sunitinib IC50 to compound IC50 for human IM9 cells. The format is functional.
The test system of experiment [10] is A549. The experiment is described as follows: Ratio of Sunitinib IC50 to compound IC50 for human A549 cells. In kind it is functional.

Consider `Cc1[nH]c(/C=C2\C(=O)N(CCCN(C)C)c3ccc(Cl)cc32)c(C)c1C(=O)N1CCCC1`, for which the IC50 in the experiment on MDA-MB-231 [1] came to 11.5 µM; in the experiment on HUVEC [2], 3.92 µM; in the experiment on IM-9 [3], 9.36 µM; with HL-60, 7.82 µM; in the experiment with K562 [4], 6.58 µM; in the experiment with HUVEC [5], 4.65 µM. In the experiment with A549 [6], this compound gave an IC50 of 14 µM.

On to `Cc1[nH]c(/C=C2\C(=O)N(CCCN(C)C)c3ccc(F)cc32)c(C)c1C(=O)N(C)C`, for which the 50% inhibitory concentration (IC50) came to 19.2 µM in the experiment with MDA-MB-231 [1]; 5.23 µM in the experiment with HUVEC [2]; 17.9 µM with IM-9 [3]; 14.8 µM in the experiment on HL-60; 13.6 µM with K562 [4]; 19.9 µM with HUVEC [5]. The same compound had an IC50 in the experiment on A549 [6] of 25.2 µM.

Turning to `Cc1[nH]c(/C=C2\C(=O)N(CCCN(C)C)c3ccc(Cl)cc32)c(C)c1C(=O)N(C)C`, the IC50 in the experiment with MDA-MB-231 [1] amounted to 12 µM; with HUVEC [2], 1.62 µM; with IM-9 [3], 9.42 µM; in the experiment on HL-60 it was 7.3 µM; in the experiment on K562 [4], 6.74 µM; with HUVEC [5] it was 8.27 µM. Also, the IC50 in the experiment with A549 [6] was 16 µM.

With `CCN(CC)C(=O)c1c(C)[nH]c(/C=C2\C(=O)N(CCCN(C)C)c3ccc(F)cc32)c1C`, the half-maximal inhibitory concentration (IC50) turned out to be 13.7 µM in the experiment on MDA-MB-231 [1]; 3.96 µM with HUVEC [2]; 14.1 µM with IM-9 [3]; 10.7 µM with HL-60; 4.88 µM in the experiment with K562 [4]; 10.5 µM in the experiment with HUVEC [5]. In the experiment with A549 [6], this compound displayed an IC50 of 29.9 µM.

On to `CCN(CC)C(=O)c1c(C)[nH]c(/C=C2\C(=O)N(CCCN(C)C)c3ccc(Cl)cc32)c1C`, for which the IC50 amounted to 6.82 µM in the experiment with MDA-MB-231 [1]; 2.9 µM with HUVEC [2]; 6.28 µM in the experiment with IM-9 [3]; 4.02 µM with HL-60; 2.07 µM in the experiment on K562 [4]; 4.87 µM in the experiment on HUVEC [5]. The same compound had an IC50 in the experiment on A549 [6] of 13.1 µM.

`Cc1[nH]c(/C=C2\C(=O)N(CCCN(C)C)c3ccc(F)cc32)c(C)c1C(=O)N1CCCC1`: the IC50 in the experiment with MDA-MB-231 [1] was 13.3 µM; in the experiment with HUVEC [2] it was 6.56 µM; in the experiment on IM-9 [3], 19.1 µM; with HL-60, 11.9 µM; in the experiment with K562 [4], 11.6 µM; in the experiment on HUVEC [5] it was 11.3 µM. Moreover, the IC50 with A549 [6] stood at 21.2 µM.

As to `Cc1[nH]c(/C=C2\C(=O)N(CCCN(C)C)c3ccc(F)cc32)c(C)c1C(=O)N1CCCCC1`, the IC50 worked out at 11.5 µM in the experiment with MDA-MB-231 [1]; 4.06 µM with HUVEC [2]; 4.83 µM in the experiment with IM-9 [3]; 4.39 µM with HL-60; 4.09 µM in the experiment with K562 [4]; 5.27 µM with HUVEC [5]. The compound also displayed an IC50 in the experiment on A549 [6] of 18.7 µM.

With `Cc1[nH]c(/C=C2\C(=O)N(CCCN(C)C)c3ccc(Cl)cc32)c(C)c1C(=O)N1CCCCC1`, the IC50 worked out at 5.68 µM with MDA-MB-231 [1]; 1.31 µM in the experiment on HUVEC [2]; 4.49 µM in the experiment with IM-9 [3]; 3.99 µM in the experiment on HL-60; 2.14 µM in the experiment with K562 [4]; 2.04 µM in the experiment on HUVEC [5]. Further, the IC50 with A549 [6] worked out at 7.33 µM.

For the compound `CCN(CC)CCNC(=O)c1c(C)[nH]c(/C=C2\C(=O)N(CCCN(C)C)c3ccc(Cl)cc32)c1C.Cl.Cl.Cl`, the “Ratio IC50” value in the experiment with MDA-MB-231 [7] was 2.1; in the experiment with K562 [8], 4.6; with IM-9 [9], 2.1; with A549 [10], 2.1. The IC50 in the experiment with MDA-MB-231 [1] came out at 2.29 µM; in the experiment with HUVEC [2] it was 2.72 µM; with IM-9 [3] it was 0.47 µM; with HL-60, 1.07 µM; in the experiment with K562 [4], 0.52 µM; with HUVEC [5], 3.08 µM. In the experiment on A549 [6], this compound had a 50% inhibitory concentration (IC50) of 3.11 µM.

Take `CCN(CC)CCNC(=O)c1c(C)[nH]c(/C=C2\C(=O)N(CCCN(C)C)c3ccc(F)cc32)c1C`: the IC50 in the experiment with MDA-MB-231 [1] is 2.86 µM; in the experiment on HUVEC [2], 0.71 µM; in the experiment on IM-9 [3], 1.63 µM; in the experiment on HL-60 it was 1.82 µM; with K562 [4], 1.33 µM; in the experiment with HUVEC [5], 1.68 µM. Besides, in the experiment on A549 [6], the IC50 came to 5.08 µM.

For `Cc1[nH]c(/C=C2\C(=O)N(CCCN(C)C)c3ccc(Cl)cc32)c(C)c1C(=O)NCCN(C)C`, the IC50 came out at 2.44 µM with MDA-MB-231 [1]; 1.11 µM with HUVEC [2]; 0.45 µM in the experiment with IM-9 [3]; 1.17 µM with HL-60; 0.53 µM in the experiment with K562 [4]; 3.36 µM with HUVEC [5]. In the experiment with A549 [6], this compound had an IC50 of 3.52 µM.

As to `Cc1[nH]c(/C=C2\C(=O)N(CCCN(C)C)c3ccc(Cl)cc32)c(C)c1C(=O)N1CCN(C)CC1`, the IC50 was 5.06 µM in the experiment with MDA-MB-231 [1]; 1.34 µM in the experiment on HUVEC [2]; 1.47 µM with IM-9 [3]; 3.56 µM with HL-60; 1.41 µM in the experiment on K562 [4]; 2 µM in the experiment with HUVEC [5]. In addition, the IC50 with A549 [6] was found to be 6.78 µM.

For `CCN1CCN(C(=O)c2c(C)[nH]c(/C=C3\C(=O)N(CCCN(C)C)c4ccc(Cl)cc43)c2C)CC1`, the IC50 in the experiment with MDA-MB-231 [1] was determined as 3.46 µM; in the experiment with HUVEC [2] it was 1.02 µM; in the experiment with IM-9 [3], 2.25 µM; in the experiment on HL-60, 2.62 µM; in the experiment on K562 [4], 2.45 µM; with HUVEC [5], 1.77 µM. This compound yielded an IC50 in the experiment with A549 [6] of 8.88 µM.

For `Cc1[nH]c(/C=C2\C(=O)N(CCCN(C)C)c3ccc(F)cc32)c(C)c1C(=O)NCCN(C)C`, the IC50 in the experiment with MDA-MB-231 [1] was found to be 2.14 µM; in the experiment on HUVEC [2] it was 0.48 µM; in the experiment on IM-9 [3] it was 1.36 µM; in the experiment with HL-60, 2.73 µM; in the experiment with K562 [4], 1.46 µM; in the experiment on HUVEC [5], 1.42 µM. Moreover, the IC50 with A549 [6] came to 2.94 µM.

For the compound `Cc1[nH]c(/C=C2\C(=O)N(CCCN(C)C)c3ccc(F)cc32)c(C)c1C(=O)N1CCN(C)CC1`, the IC50 in the experiment on MDA-MB-231 [1] came to 9 µM; in the experiment on HUVEC [2] it was 2.99 µM; in the experiment with IM-9 [3], 4.06 µM; in the experiment on HL-60, 7.59 µM; in the experiment with K562 [4] it was 5.27 µM; with HUVEC [5], 5.64 µM. In the experiment with A549 [6], the IC50 was 11.1 µM.

In the case of `CCN1CCN(C(=O)c2c(C)[nH]c(/C=C3\C(=O)N(CCCN(C)C)c4ccc(F)cc43)c2C)CC1`, the IC50 turned out to be 8.09 µM in the experiment on MDA-MB-231 [1]; 1.58 µM in the experiment on HUVEC [2]; 7.26 µM in the experiment on IM-9 [3]; 13.4 µM in the experiment with HL-60; 5.98 µM in the experiment with K562 [4]; 3.38 µM with HUVEC [5]. The compound further had an IC50 with A549 [6] of 13.7 µM.

As to `CCN(CC)CCNC(=O)c1c(C)[nH]c(/C=C2\C(=O)Nc3ccc(F)cc32)c1C` [SUNITINIB], the IC50 came out at 4.51 µM in the experiment with MDA-MB-231 [1]; 2.75 µM in the experiment on HUVEC [2]; 1.35 µM in the experiment on IM-9 [3]; 3.53 µM in the experiment with HL-60; 2.41 µM with K562 [4]; 4.04 µM in the experiment with HUVEC [5]. Also, the IC50 in the experiment with A549 [6] came to 6.61 µM.

A word on the IC50: it is the concentration that inhibits the measured activity by half. Read a high IC50 as a need for much substance.
